Data from the supplement of paper PMC10933113.
Where a name gives a salt, the structure may show the parent alone. ± gives the uncertainty stated by the source.

What was measured:
THP-1 = assay: efficacy of IL-8 induction relative to DMSO (% activity); higher = stronger induction; conditions: exposure time: 18 h
[1] = test system: cysteine peptide Ac-RFAACAA-COOH; assay: efficacy of cysteine peptide change (negative = depletion) (% activity); higher = less depletion; conditions: incubation time: 24 h
[2] = test system: KeratinoSens (HaCaT ARE-luciferase) cells; assay: cytotoxicity AC50 (CellTiter-Fluor viability); higher = less cytotoxic; conditions: exposure time: 24 h
[3] = test system: KeratinoSens (HaCaT ARE-luciferase) cells; assay: efficacy of ARE luciferase induction relative to DMSO (% activity over DMSO); higher = stronger induction; conditions: exposure time: 24 h
[4] = test system: cysteine peptide Ac-RFAACAA-COOH; assay: AC50 of cysteine peptide concentration-response (direction given by sign of efficacy); higher = less potent; conditions: incubation time: 24 h
[5] = test system: lysine peptide Ac-RFAAKAA-COOH; assay: efficacy of lysine peptide change (negative = depletion) (% activity); higher = less depletion; conditions: incubation time: 24 h

Row | SMILES | efficacy of IL-8 induction (THP-1) | efficacy of cysteine peptide change [1] | cytotoxicity AC50 [2] | efficacy of ARE luciferase induction [3] | AC50 [4] | efficacy of lysine peptide change [5]
1 | C=CC(=O)OCCn1c(=O)n(CCOC(=O)C=C)c(=O)n(CCOC(=O)C=C)c1=O | 20.8 ± 5.9 | -99.7 ± 6.5 | 24.7 ± 9.8 µM | 47.2 ± 67 | 7.11 ± 0.82 µM | -0.37 ± 14
2 | O=C1C=CC(=O)c2ccccc21 [1,4-NAPHTHOQUINONE*] | 37.7 ± 15 | -107 ± 5.1 | 8.95 ± 1 µM | -40.2 ± 8.4 | 0.53 ± 0.2 µM | -25.7 ± 2.1
3 | O=C(O)c1cc(O)c2ccccc2c1O [1,4-dihydroxy-2-naphthoic acid*] | 31.2 ± 8.8 | -105 ± 11 | 13.7 ± 2.3 µM | -34 ± 5.3 | 4.18 ± 2.3 µM | -107 ± 3.6
4 | NC(=S)NC(N)=S [2,4-Dithiobiuret] | 15.5 ± 4.3 | -94.5 ± 8 |  | 59.4 ± 25 | 3.18 ± 0.37 µM | -0.11 ± 21
5 | COc1cc(C(C)(C)C)c(O)c(C(C)(C)C)c1 [2,6-Di-tert-butyl-4-methoxyphenol] | 0 | -96.8 ± 3.7 |  | 17.3 ± 33 | 43.4 ± 7.4 µM | 3.75 ± 13
6 | Nc1cc(Cl)ccc1O [2-Amino-4-chlorophenol] | 14 ± 3 | -103 ± 8.1 | 48.3 ± 3.1 µM | 60.7 ± 16 | 2.44 ± 1.1 µM | -22.2 ± 9
7 | Nc1ccc2cc3ccccc3cc2c1 [2-Aminoanthracene] | 22.1 ± 0.99 | -84.3 ± 8.4 |  | 25.1 ± 4.7 | 0.19 ± 0.07 µM | -21.2 ± 1.8
8 | Clc1ccc2c(c1)Nc1ccccc1S2 [2-Chlorophenothiazine] | 7.79 ± 8 | -90.5 ± 15 |  | 28.3 ± 36 | 4.03 ± 0.75 µM | -12.3 ± 2.6
9 | COc1ccccc1N [2-Methoxyaniline hydrochloride] | 0 | -74 ± 18 |  | 68 ± 63 | 45.5 ± 10 µM | -4.19 ± 7.3
10 | Cc1occc1S [2-Methyl-3-furanthiol] | 14 ± 8.6 | -117 ± 12 |  | 34.9 ± 23 | 10.6 ± 2.4 µM | -108 ± 8.9
11 | Nc1ccc2ccccc2c1 [2-Naphthylamine] | 5.33 ± 9.2 | -65.5 ± 4.2 | 70.8 µM | 111 ± 32 | 0.53 ± 0.23 µM | -10.1 ± 12
12 | N#Cc1nc(Cl)c(Cl)c(Cl)c1Cl [3,4,5,6-Tetrachloro-2-pyridinecarbonitrile] | 85.9 ± 32 | -49.4 ± 8.4 | 10 ± 3.6 µM | 38 ± 64 | 66.8 ± 29 µM | 43.7 ± 15
13 | Nc1cc(Cl)c(O)c(Cl)c1 [4-Amino-2,6-dichlorophenol] | 61.6 ± 34 | -93.8 ± 6.2 |  | 99.2 ± 100 | 0.27 ± 0.14 µM | -45.6 ± 7.5
14 | Nc1ccc([N+](=O)[O-])cc1N [4-Nitro-1,2-phenylenediamine] | 3.64 ± 4.4 | -16.4 ± 5.1 | 41.6 ± 5.3 µM | 46.2 ± 27 |  | 1.34 ± 22
15 | CC(C)(C)c1ccc(S)cc1 [4-tert-Butylbenzenethiol] | 16.3 ± 5.9 | -88.2 |  | 28 ± 17 | 44.7 µM | 10.3 ± 18
16 | Cc1ccc(N)cc1O [5-Amino-2-methylphenol] | 3.18 ± 5.5 | -77.2 ± 7.4 |  | 59.5 ± 26 | 33.1 ± 20 µM | -3.52 ± 14

Row | SMILES | efficacy of IL-8 induction (THP-1) | efficacy of cysteine peptide change [1] | cytotoxicity AC50 [2] | efficacy of ARE luciferase induction [3] | AC50 [4] | efficacy of lysine peptide change [5]
17 | Oc1ccc2cc(SSc3ccc4cc(O)ccc4c3)ccc2c1 [6-Hydroxy-2-naphthyl disulfide] | 52.2 ± 9.7 | -97.3 ± 8 |  | 146 ± 38 | 0.36 ± 0.04 µM | -144 ± 8
18 | CC1=C(/C=C/C(C)=C\C=C\C(C)=C\C(=O)O)C(C)(C)CCC1 [9-cis Retinoic acid] | 4.41 ± 7.6 | -104 ± 23 |  | 47.6 ± 16 | 41.1 ± 17 µM | -19.7 ± 2.9
19 | CC1=C(/C=C/C(C)=C/C=C/C(C)=C/C=O)C(C)(C)CCC1 [13-cis-Retinal (Vitamin A aldehyde)] | 3.58 ± 6.2 | -71.2 ± 22 |  | -8.45 ± 12 | 38.7 ± 6.6 µM | 3.09 ± 20
20 | CC(C)=CCC/C(C)=C\CO [(2Z)-3,7-Dimethylocta-2,6-dien-1-ol] | 3.59 ± 6.2 | -76.1 ± 14 |  | 19 ± 27 | 62.8 ± 38 µM | 21.2 ± 7.3
21 | CCc1cccc(CC)c1N(COC)C(=O)CCl [Alachlor] | 0 | 0 | 48.5 ± 6.7 µM | 35.9 ± 29 |  | 64.4 ± 24
22 | O=C1c2cccc(O)c2C(=O)c2c(O)cc(CO)cc21 [Aloe-emodin] | -5.38 ± 9.3 | -75.7 ± 21 |  | 35.9 ± 24 | 1.33 ± 0.83 µM | -80.7 ± 18
23 | Nc1cc(-c2ccncc2)c[nH]c1=O [Amrinone] | 11.6 ± 10 | -105 ± 8.9 |  | 11.6 ± 5.4 | 31 ± 7.8 µM | 2.29 ± 4
24 | NNCc1ccccc1 [BENZYLHYDRAZINE HYDROCHLORIDE] | 3.79 ± 6.6 | -43 ± 5.2 |  | 50.8 ± 24 | 35.6 ± 4.1 µM | 
25 | CCCCCCCCCCCCCCCC[N+](C)(C)Cc1ccccc1 [Benzylhexadecyldimethylammonium chloride] | 45 ± 9.3 | 8.87 ± 8.5 | 31.8 ± 3.6 µM | -36.7 ± 2.6 |  | 66 ± 24
26 | c1cc(OCC2CO2)ccc1Cc1ccc(OCC2CO2)cc1 (centres undefined) [Bis[4-(glycidyloxy)phenyl]methane] | -2.51 ± 4.3 | -4.82 ± 8.3 | 57 ± 12 µM | -12 ± 59 |  | 62.7 ± 21
27 | CC(C)C[C@H](NC(=O)[C@H](Cc1ccccc1)NC(=O)c1cnccn1)B(O)O [Bortezomib] | 504 ± 17 | 8.93 ± 9.3 | 0.33 ± 0.02 µM | -42.8 ± 3.7 |  | -35 ± 19
28 | COc1cc(Nc2c(C#N)cnc3cc(OCCCN4CCN(C)CC4)c(OC)cc23)c(Cl)cc1Cl [Bosutinib] | 7.85 ± 7.5 | 32.5 ± 12 | 12.6 µM | -18.8 ± 8.1 |  | 120 ± 29
29 | O=[N+]([O-])c1ccc(O/N=C/c2cc(Br)c(O)c(Br)c2)c([N+](=O)[O-])c1 [Bromofenoxim] | 0 | -97 ± 11 | 34.2 ± 2.2 µM | 12.5 ± 12 | 8.35 ± 4.5 µM | 62.9 ± 22
30 | Oc1c(Br)cc(Br)c2cccnc12 [Broxyquinoline] | 55.7 ± 43 | -69.9 ± 28 | 4 ± 0.46 µM | -33.3 ± 3 | 2.44 ± 1.8 µM | -14.3 ± 14
31 | O=C1C(Cl)=C(Cl)C(=O)C(Cl)=C1Cl [Chloranil] | 25.9 ± 3.2 | -73.9 ± 2.3 | 28.2 µM | 32.8 ± 9.5 | 0.65 ± 0.34 µM | -124 ± 7.8
32 | ClC1=C(Cl)C2(Cl)C3C(Cl)C(Cl)CC3C1(Cl)C2(Cl)Cl (centres undefined) [Chlordane] | 49.6 ± 10 | -56.1 ± 16 | 41.4 ± 2.8 µM | -18.6 ± 53 | 50.3 ± 5.8 µM | -2.38 ± 11
